From PubChem BioAssay (NCI)
Values joined by “and” are separate entries in the source; they are usually repeats but may differ in a detail not shown here. Equal entries are not always repeated.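 Method: 48-hour compound exposure of cells in 96-well plates, five concentrations, linear interpolation of endpoints. GI50: concentration for 50% inhibition of growth. TGI: total growth inhibition.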

Legend:
Test in all cases: DTP human tumour cell line panel, 48 h
MOLT-4 leukemia = test system: MOLT-4 leukemia
786-0 renal = test system: 786-0 renal
HOP-62 NSCLC = test system: HOP-62 NSCLC
CAKI-1 renal = test system: CAKI-1 renal
OVCAR-8 ovarian = test system: OVCAR-8 ovarian
UACC-257 melanoma = test system: UACC-257 melanoma
SK-OV-3 ovarian = test system: SK-OV-3 ovarian
A549 NSCLC = test system: A549 NSCLC
IGROV1 ovarian = test system: IGROV1 ovarian

SMILES | GI50 (MOLT-4 leukemia) | TGI (MOLT-4 leukemia) | GI50 (786-0 renal) | TGI (786-0 renal) | GI50 (HOP-62 NSCLC) | TGI (HOP-62 NSCLC) | GI50 (CAKI-1 renal) | TGI (CAKI-1 renal) | GI50 (OVCAR-8 ovarian) | TGI (OVCAR-8 ovarian) | GI50 (UACC-257 melanoma) | TGI (UACC-257 melanoma) | GI50 (SK-OV-3 ovarian) | TGI (SK-OV-3 ovarian) | GI50 (A549 NSCLC) | TGI (A549 NSCLC) | GI50 (IGROV1 ovarian) | TGI (IGROV1 ovarian)
CC(=O)[C@H]1CCC2[C@@H]3CC=C4C[C@@H]([O-])CC[C@]4(C)C3CC[C@@]21C.CC(=O)[C@H]1CCC2[C@@H]3CC=C4C[C@@H]([O-])CC[C@]4(C)C3CC[C@@]21C.CC(=O)[CH-]C(=O)c1ccccc1.CC(=O)[CH-]C(=O)c1ccccc1.Cl.[Ti+4] (some centres not stated) | 38.1 µM | > 100 µM | 6.03 µM | 17.9 µM | 24.6 µM | 67.6 µM | 19 µM | 97.3 µM | 19.8 µM | 79.2 µM | 16.2 µM | 69.7 µM | 26.6 µM | 77.4 µM | 23.6 µM | > 100 µM | 25.9 µM | 87.1 µM
Clc1cccc(C2N3CCCCC3[C@@H]3c4[nH]c5ccccc5c4CCN23)c1 (some centres not stated) |  | 60.5 µM |  | > 100 µM |  | > 100 µM |  | > 100 µM |  | > 100 µM |  | 98.2 µM |  | > 100 µM |  | > 100 µM |  | > 100 µM
CC(=O)[CH-]C(=O)c1ccccc1.CC(=O)[CH-]C(=O)c1ccccc1.O=S(=O)([O-])c1cc([O-])c2c([O-])cc(S(=O)(=O)[O-])cc2c1.[Na+].[Zr+4] | 40.8 µM | > 100 µM | 70.8 µM | > 100 µM | 76 µM | > 100 µM | 60 µM | > 100 µM | > 100 µM | > 100 µM | 87.2 µM | > 100 µM | > 100 µM | > 100 µM | > 100 µM | > 100 µM | > 100 µM | > 100 µM
CCCCCCCCCC[C@H](O)[C@H](O)CC[C@@H](O)[C@H]1CC[C@@H]([C@H]2CC[C@H](CCCCCCC[C@@H](O)CC3=C[C@H](C)OC3=O)O2)O1 | 23.9 µM | 94.7 µM | 30.9 µM | > 100 µM | 11.6 µM | 69.8 µM | 32.4 µM | 9.67 µM and 89 µM |  |  | 9.51 µM | > 100 µM |  |  | 20.7 µM | > 100 µM | 25.8 µM | 
CCOC(=O)C(C#N)C1=CC(=O)C(=O)c2ccc(O)cc21 (configuration not stated) |  | > 100 µM |  | > 100 µM |  | > 100 µM |  | > 100 µM |  | > 100 µM |  | > 100 µM |  | > 100 µM |  | > 100 µM |  | > 100 µM
COc1ccc(S(=O)(=O)N(CC(=O)O)c2ccccc2)cc1 |  | > 100 µM |  | > 100 µM |  |  |  | > 100 µM |  | > 100 µM |  | > 100 µM |  | > 100 µM |  | > 100 µM |  | > 100 µM
Nc1c(Cl)ncnc1NCCCCCCCCCCCCNc1ncnc(Cl)c1N |  |  |  | 66.1 µM |  | 6.82 µM |  |  |  | > 100 µM |  | 4.21 µM |  | > 100 µM |  |  |  | > 100 µM
Cc1cccc(C)c1N1C(=O)C(=O)C(c2nc3ccccc3s2)/C(=N\N)C1=O (configuration not stated) |  | > 100 µM |  | > 100 µM |  | > 100 µM |  | > 100 µM |  | > 100 µM |  | > 100 µM |  | > 100 µM |  | > 100 µM |  | > 100 µM
O=C(/C=C/c1cccc([N+](=O)[O-])c1)c1ccc([N+](=O)[O-])cc1 |  | > 100 µM |  | > 100 µM |  | > 100 µM |  | > 100 µM |  | > 100 µM |  | > 100 µM |  | > 100 µM |  | > 100 µM |  | > 100 µM
O=C(Nc1ccc(Cl)c(Cl)c1)C(=O)C(C(=O)c1ccccc1-c1ccccc1)C1OC(=O)c2ccccc21 (configuration not stated) |  | > 100 µM |  | 25.6 µM |  | 27.4 µM |  |  |  | 84.5 µM |  | > 100 µM |  | 78.3 µM |  | 63.2 µM |  | 73.5 µM
COC(=O)[C@@H]1Cc2c([nH]c3ccccc23)[C@H](c2ccccc2)N1 |  | > 100 µM |  | > 100 µM |  |  |  | > 100 µM |  | > 100 µM |  | > 100 µM |  | 89.7 µM |  | > 100 µM |  | 92 µM
COC1OC2COC(C)(C)OC2C(OC(C)=O)C1NC(=O)N(CCCl)N=O (configuration not stated) |  | > 100 µM |  | > 100 µM |  | > 100 µM |  | > 100 µM |  | > 100 µM |  | > 100 µM |  | > 100 µM |  | > 100 µM |  | > 100 µM
O=C(Nc1ccc(Cl)cc1Cl)OC(Cn1cncn1)c1ccc(Cl)cc1Cl (configuration not stated) |  | > 100 µM |  | 33.5 µM |  | 34.5 µM |  |  |  | 31.8 µM |  | 30.9 µM |  | 34.7 µM |  | 33 µM |  | 31.4 µM
CCNC(=O)OCc1c(COC(=O)NCC)c(-c2ccc(Cl)c(Cl)c2)n2c1CCC2 |  | 56.3 µM |  | 33.5 µM |  | 23.8 µM |  | 14.6 µM |  | 41.7 µM |  | 83.8 µM |  |  |  | 82.3 µM |  | 48.7 µM
CN(/N=C\c1ccnc2ccccc12)c1ccc([N+](=O)[O-])cc1 |  | > 100 µM |  | > 100 µM |  | > 100 µM |  | > 100 µM |  | > 100 µM |  | > 100 µM |  | > 100 µM |  | > 100 µM |  | > 100 µM
COc1c(-c2ccccc2)nc2ccc(Oc3ccccc3)nn12 |  | > 64.7 µM |  | > 100 µM |  | > 100 µM |  | > 100 µM |  | > 100 µM |  | > 96.5 µM |  | > 100 µM |  | > 100 µM |  | > 100 µM
Cc1nc2c(o1)C(=Nc1ccccc1)c1nc(C)oc1C2=Nc1ccccc1 |  | 72.6 µM |  | 34.2 µM |  | 36.3 µM |  |  |  | 34.3 µM |  | 97.6 µM |  | 40.4 µM |  | 54.1 µM |  | 52.1 µM
N#CC(C(=O)/C(=N\NC(N)=O)C(C#N)c1ccccc1)c1ccccc1 (configuration not stated) |  | > 100 µM |  | > 100 µM |  | > 100 µM |  | > 100 µM |  | > 100 µM |  | > 100 µM |  | > 100 µM |  | > 100 µM |  | > 100 µM
N/N=C(/Cc1nc2ccc(C(=O)c3ccccc3)cc2[nH]c1=O)C(=O)Nc1ccc([N+](=O)[O-])cc1[N+](=O)[O-] | > 100 µM | > 100 µM |  | > 100 µM |  |  |  | > 100 µM |  | > 100 µM |  | > 100 µM |  | > 100 µM | > 100 µM | > 100 µM | > 100 µM | > 100 µM
O=C1O/C(=C/c2ccccc2)C(c2ccccc2)=C1O |  | > 100 µM |  | > 100 µM |  | 94.3 µM |  | > 100 µM |  | > 100 µM |  | > 100 µM |  | > 100 µM |  | > 100 µM |  | > 100 µM
COC(=O)C1C(=O)O[C@@H](c2cc(OC)c(OC)cc2OC)C1C(=O)OC (mixture of isomers) |  | > 100 µM |  | > 100 µM |  | > 100 µM |  | > 100 µM |  | > 100 µM |  | > 100 µM |  | > 100 µM |  | > 100 µM |  | > 100 µM
COC(=O)C1=CC2C=CC(C1C(=O)OC)C1C(C(=O)OC)=C(C(=O)OC)C(C(=O)OC)=C(C(=O)OC)C21OC (configuration not stated) |  | > 100 µM |  | > 100 µM |  | > 100 µM |  | > 100 µM |  | > 100 µM |  | > 100 µM |  | > 100 µM |  | > 100 µM |  | > 100 µM
Nc1ccccc1C(=O)CCC1C(=O)NC(=S)NC1=O |  | > 100 µM |  | > 100 µM |  | > 100 µM |  | > 100 µM |  | > 100 µM |  | > 100 µM |  | > 100 µM |  | > 100 µM |  | > 100 µM
CC(=O)[CH-]C(=O)c1ccccc1.CC(=O)[CH-]C(=O)c1ccccc1.CC(=O)[CH-]C(=O)c1ccccc1.[Nd+3].[OH3+] | 28.4 µM | > 100 µM | 37 µM | > 100 µM | 31.9 µM | > 100 µM | 61 µM | > 100 µM | 27.2 µM | > 100 µM | 52.1 µM | > 100 µM | 31.7 µM | 99 µM | > 100 µM | > 100 µM | 97.9 µM | > 100 µM
CN(/N=C/c1ccnc2ccccc12)c1c([N+](=O)[O-])cc([N+](=O)[O-])cc1[N+](=O)[O-] |  | > 100 µM |  | > 100 µM |  | > 100 µM |  | > 100 µM |  | > 100 µM |  | > 100 µM |  | > 100 µM |  | > 100 µM |  | > 100 µM
COc1cc(/C=N/N=C(\N)NO)c(Cl)cc1O |  | > 100 µM |  | > 100 µM |  |  |  | > 100 µM |  | > 100 µM |  | > 100 µM |  | > 100 µM |  | > 100 µM |  | > 100 µM
Cc1cc(C)c(-c2noc(-c3ccc(Cl)cc3)c2C2=NCCCN2)c(C)c1 |  | 41.7 µM |  | 26.5 µM |  | 85.8 µM |  | > 100 µM |  | > 100 µM |  | 40.6 µM |  | > 100 µM |  | > 100 µM |  | > 100 µM
Clc1cccc(-c2nnc(-c3nn(-c4ccccc4)c4nc5ccccc5nc34)o2)c1 |  | > 100 µM |  | > 100 µM |  | > 100 µM |  | > 100 µM |  | > 100 µM |  | > 100 µM |  | > 100 µM |  | > 100 µM |  | > 100 µM
NC1=NN(c2ccccc2)C(=O)C1C(=O)C(=O)Nc1ccc(Cl)c(Cl)c1 (configuration not stated) |  | > 100 µM |  | > 100 µM |  | > 100 µM |  | > 100 µM |  | > 100 µM |  | > 100 µM |  | > 100 µM |  | > 100 µM |  | > 100 µM
COc1ccc(OC)c(/C=N/N=C(\N)NO)c1 |  |  |  | > 100 µM |  | > 100 µM |  | 71.4 µM |  | > 100 µM |  | > 100 µM |  | > 100 µM |  | > 100 µM |  | > 100 µM
